Test results taken from US11878970B2, “Allosteric chromenone inhibitors of phosphoinositide 3-kinase (PI3K) for the treatment of disease” (Petra Pharma Corporation, priority 2021, dated 2024).
pIC50: −log10 of the molar value.

Tests used:
[1] = target: T1, PI3K-α (PIK3CA) wild-type (WT), p110α/p85α complex (Homo sapiens, UniProt P42336); experiment: PI3K-alpha kinase (PIK3CA) biochemical activity, ADP-Glo, wild-type
T1 construct: Recombinant, catalytically active human full length PIK3KA Wild-type and H1047R mutant; 6×His (N); purchased EMD Millipore Sigma 14-602M
Text: (§1) PI3K-Alpha Kinase (PIK3CA) Activity, Wild-Type and H1047R Mutant and Determining IC50 Values for Inhibitors
(§2) Recombinant, catalytically active human full length PIK3KA Wild-type and H1047R mutant were purchased as 1:1 complex of N-terminal 6×his tagged p110α (catalytic) and untagged p85α (regulatory subunit) from EMD Millipore Sigma (cat. no. 14-602M and 14-792M, respectively). PIP2diC8 (Avanti Polar Lipids Inc., cat. no. 850185) or Soy PI (Avanti Polar Lipids Inc., cat. No. 840044P) was used as lipid substrate. PIP2diC8 or PI lyophilized powder was dissolved in milliQ water to a concentration of 1 mM just before use. 10 mM stock compounds in DMSO were serially diluted 1:3 to generate a 10-point curve and plated using an acoustic liquid handler system (Echo 550 series instrument, Labcyte). A 10× intermediate compound plate (200 uM starting compound concentration and 10% DMSO) was prepared before starting the reaction. A typical reaction mixture (50 uL) comprised 40 mM HEPES buffer, pH 7.4, 25 mM MgCl2, 0.01% v/v triton-X-100, 1% v/v DMSO, 20 mM NaCl, 1-5 nM WT or H1047R PI3K protein, 20 uM ATP, and 50 uM PIP2diC8 or Soy PI. 1% DMSO buffer alone without test compound was employed as MAX control (full activity in the absence of any inhibitor), and no enzyme control was used to determine the level of background Adenosine 5′-diphosphate (ADP) (MIN control). First, Wild-type (WT) and H1047R mutant protein in kinase buffer with all components except ATP were incubated with or without compound at 27° C. for 1 h. After the pre-incubation, the reaction was initiated by the addition of 20 uL of 50 uM ATP (20 uM final concentration). The reaction was allowed to proceed until about 10% conversion of ATP (2 uM ADP) at 27° C. After that time, 5 uL of reaction was mixed with 5 uL of ADP-Kinase Glo Reagent (ADP-Glo Kinase assay kit, Promega cat. no. V9102) supplemented with MgCl2 10 mM to stop the reaction and deplete the remaining ATP for 40 min at room temperature. Then, 10 uL of Kinase Detection Reagent (ADP-Glo Kinase assay kit, Promega cat. no. V9102) was added to simultaneously convert ADP to ATP and allow the newly synthesized ATP to be measured using a luciferase/luciferin reaction. After 30 min at room temperature the light generated was measured using a luminometer (EnVision plate reader, Perkin Elmer). Process data through Genedata-Screener tool. Relative IC50 values are determined using luminescence units by calculating percent inhibition with respect to on-plate “MIN” and “MAX” controls. Data was analyzed using a 4-parameter nonlinear logistic equation (four-parameter logistic concentration-response curve): Y=bot+[(top−bot)/1+(x/IC50)slope] where Y=% inhibition, X=concentration yielding y % inhibition, Bottom=minimum value of y attained by curve, Top=maximum value of y attained by curve and Slope=steepness of curve at IC50. % Inh=[(median Max−x/median Max−median Min)]·100 IC50: concentration of compound that reduces a given response (ligand binding, enzyme response) by 50%. IC50 relative: concentration giving half the compound's maximum response.

[2] = target: T2, PI3K-α (PIK3CA) H1047R mutant, p110α/p85α complex (Homo sapiens, UniProt P42336, H1047R); experiment: PI3K-alpha kinase (PIK3CA) biochemical activity, ADP-Glo, H1047R mutant
T2 construct: Recombinant, catalytically active human full length PIK3KA Wild-type and H1047R mutant; 6×His (N); purchased EMD Millipore Sigma 14-792M
T2 sequence (P42336 whole entry H1047R): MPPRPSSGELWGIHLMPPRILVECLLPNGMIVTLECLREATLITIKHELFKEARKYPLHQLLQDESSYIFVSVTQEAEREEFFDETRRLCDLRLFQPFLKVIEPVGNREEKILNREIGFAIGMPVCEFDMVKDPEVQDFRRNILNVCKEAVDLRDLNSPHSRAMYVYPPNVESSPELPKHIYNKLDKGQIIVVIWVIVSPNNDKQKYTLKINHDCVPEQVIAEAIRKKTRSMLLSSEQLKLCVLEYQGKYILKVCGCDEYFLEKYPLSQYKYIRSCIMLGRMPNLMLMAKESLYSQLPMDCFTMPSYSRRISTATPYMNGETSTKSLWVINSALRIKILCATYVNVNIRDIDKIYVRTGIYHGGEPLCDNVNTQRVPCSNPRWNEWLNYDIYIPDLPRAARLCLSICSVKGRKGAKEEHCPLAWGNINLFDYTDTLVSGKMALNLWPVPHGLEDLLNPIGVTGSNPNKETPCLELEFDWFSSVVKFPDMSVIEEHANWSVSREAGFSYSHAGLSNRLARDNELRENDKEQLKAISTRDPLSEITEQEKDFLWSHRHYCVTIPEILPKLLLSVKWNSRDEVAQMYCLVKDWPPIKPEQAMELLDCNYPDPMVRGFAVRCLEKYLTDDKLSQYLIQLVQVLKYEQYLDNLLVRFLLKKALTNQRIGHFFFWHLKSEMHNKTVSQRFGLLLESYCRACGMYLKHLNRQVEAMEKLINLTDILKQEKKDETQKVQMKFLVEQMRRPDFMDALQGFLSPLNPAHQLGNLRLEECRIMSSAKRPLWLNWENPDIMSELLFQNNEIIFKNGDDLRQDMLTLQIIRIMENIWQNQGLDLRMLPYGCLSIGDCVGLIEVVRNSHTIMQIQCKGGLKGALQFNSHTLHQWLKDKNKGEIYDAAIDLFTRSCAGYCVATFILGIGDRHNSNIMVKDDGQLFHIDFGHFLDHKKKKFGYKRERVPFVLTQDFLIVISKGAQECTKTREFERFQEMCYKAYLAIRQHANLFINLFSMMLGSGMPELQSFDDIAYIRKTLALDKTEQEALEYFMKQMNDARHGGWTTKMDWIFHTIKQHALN
T2 sequence (P27986 whole entry partner): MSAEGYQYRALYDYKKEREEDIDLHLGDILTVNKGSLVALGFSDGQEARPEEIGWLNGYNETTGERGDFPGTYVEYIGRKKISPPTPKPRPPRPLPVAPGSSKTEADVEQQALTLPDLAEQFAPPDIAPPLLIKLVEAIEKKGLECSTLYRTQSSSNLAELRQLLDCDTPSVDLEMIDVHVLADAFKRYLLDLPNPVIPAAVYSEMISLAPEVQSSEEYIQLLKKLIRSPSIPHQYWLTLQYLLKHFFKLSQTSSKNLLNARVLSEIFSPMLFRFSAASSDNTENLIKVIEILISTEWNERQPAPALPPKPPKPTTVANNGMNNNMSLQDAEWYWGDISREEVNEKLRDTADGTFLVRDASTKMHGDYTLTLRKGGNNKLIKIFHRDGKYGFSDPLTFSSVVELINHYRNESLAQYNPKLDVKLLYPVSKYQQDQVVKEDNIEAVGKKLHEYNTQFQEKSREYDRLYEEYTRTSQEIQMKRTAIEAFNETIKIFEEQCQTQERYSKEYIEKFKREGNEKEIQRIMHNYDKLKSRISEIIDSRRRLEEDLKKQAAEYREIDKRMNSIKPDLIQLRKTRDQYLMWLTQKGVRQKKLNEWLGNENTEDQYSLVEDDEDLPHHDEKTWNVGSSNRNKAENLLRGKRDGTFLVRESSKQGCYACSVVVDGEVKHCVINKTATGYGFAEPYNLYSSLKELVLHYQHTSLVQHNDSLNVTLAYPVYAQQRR
Text: as §1, §2

[3] = PIP2diC8 lipid substrate (footnote 1)

Row | pIC50 ([1]; Soy PI lipid substrate) | pIC50 ([2]; Soy PI lipid substrate) | pIC50 [1, 3] | pIC50 [2, 3] | SMILES
1 | 6.00 to 6.30 | > 6.30 |  |  | Cc1cc(C(C)Nc2ccc(Cl)c(F)c2C(=O)O)c2oc(-c3ccc4nn(C)cc4c3)cc(=O)c2c1 (single isomer, unassigned) [Example 184, 3-Chloro-2-fluoro-6-[1-[6-methyl-2-(2-methylindazol-5-yl)-4-oxo-chromen-8-yl]ethylamino]benzoic acid]
2 | 5.00 to 5.30 | 6.00 to 6.30 |  |  | Cc1cc(C(C)Nc2ccccc2C(=O)O)c2oc(-c3cccn4ccnc34)cc(=O)c2c1 (single isomer, unassigned) [Example 127, 2-[1-(2-Imidazo[1,2-a]pyridin-8-yl-6-methyl-4-oxo-chromen-8-yl)ethylamino]benzoic acid]
3 | 5.00 to 5.30 | 5.30 to 6.00 |  |  | Cc1cc(C(C)Nc2ccccc2C(=O)O)c2oc(-c3cnc4nn(C)cc4c3)cc(=O)c2c1 (single isomer, unassigned) [Example 41, 2-[1-[6-Methyl-2-(2-methylpyrazolo[3,4-b]pyridin-5-yl)-4-oxo-chromen-8-yl]ethylamino]benzoic acid]
4 | 5.30 to 6.00 | > 6.30 |  |  | Cc1cc(C(C)Nc2ccccc2C(=O)O)c2oc(-c3cccc4c3OCO4)c(C)c(=O)c2c1 (single isomer, unassigned) [Example 92, 2-[1-[2-(1,3-Benzodioxol-4-yl)-3,6-dimethyl-4-oxo-chromen-8-yl]ethylamino]benzoic acid]
5 | 5.30 to 6.00 | > 6.30 |  |  | Cc1cc(C(C)Nc2cccc(F)c2C(=O)O)c2oc(-c3ccc4nn(C)cc4c3)cc(=O)c2c1 (centres unmarked) [Example 103, 2-Fluoro-6-[1-[6-methyl-2-(2-methylindazol-5-yl)-4-oxo-chromen-8-yl]ethylamino]benzoic acid]
6 | < 5.00 | 6.00 to 6.30 |  |  | Cc1cc(C(C)Nc2ccccc2C(=O)O)c2oc(-c3ccc4nn(CC(C)(C)O)cc4c3)cc(=O)c2c1 (single isomer, unassigned) [Example 122, 2-[1-[2-[2-(2-Hydroxy-2-methyl-propyl)indazol-5-yl]-6-methyl-4-oxo-chromen-8-yl]ethylamino]benzoic acid]
7 | > 6.30 | > 6.30 |  |  | Cc1cc(C(C)Nc2cccc(F)c2C(=O)O)c2oc(-c3ccc4nn(C)cc4c3)cc(=O)c2c1 (single isomer, unassigned) [Example 172, 2-Fluoro-6-[1-[6-methyl-2-(2-methylindazol-5-yl)-4-oxo-chromen-8-yl]ethylamino]benzoic acid]

Second part, the compound before the results:

Row | SMILES | pIC50 ([1]; Soy PI lipid substrate) | pIC50 ([2]; Soy PI lipid substrate) | pIC50 [1, 3] | pIC50 [2, 3]
8 | Cc1cc(C(C)Nc2ccccc2C(=O)O)c2oc(-c3cnc4cn(C)nc4c3)cc(=O)c2c1 (single isomer, unassigned) [Example 43, 2-[1-[6-Methyl-2-(2-methylpyrazolo[4,3-b]pyridin-6-yl)-4-oxo-chromen-8-yl]ethylamino]benzoic acid] | < 5.00 | < 5.00 |  | 
9 | Cc1cc(C(C)Nc2ccc(C)nc2C(=O)O)c2oc(-c3nn(C)c4ccccc34)cc(=O)c2c1 (single isomer, unassigned) [Example 176, 6-Methyl-3-[1-[6-methyl-2-(1-methylindazol-3-yl)-4-oxo-chromen-8-yl]ethylamino]pyridine-2-carboxylic acid] | < 5.00 | > 6.30 |  | 
10 | Cc1cc(C(C)Nc2ccccc2C(=O)O)c2oc(-c3ccc4cncn4c3)cc(=O)c2c1 (single isomer, unassigned) [Example 79, 2-[1-(2-Imidazo[1,5-a]pyridin-6-yl-6-methyl-4-oxo-chromen-8-yl)ethylamino]benzoic acid] | 5.30 to 6.00 | > 6.30 |  | 
11 | Cc1cc(C(C)Nc2ccccc2C(=O)O)c2oc(-c3cn(C)c4ccccc34)cc(=O)c2c1 (single isomer, unassigned) [Example 143, 2-[1-[6-Methyl-2-(1-methylindol-3-yl)-4-oxo-chromen-8-yl]ethylamino]benzoic acid] | 6.00 to 6.30 | > 6.30 |  | 
12 | Cc1c(-c2ccc3nn(C)cc3c2)oc2c(C(C)Nc3ccccc3C(=O)O)cc(F)cc2c1=O (single isomer, unassigned) [Example 148, 2-[1-[6-Fluoro-3-methyl-2-(2-methylindazol-5-yl)-4-oxo-chromen-8-yl]ethylamino]benzoic acid] | 6.00 to 6.30 | > 6.30 |  | 
13 | Cc1cc(C(C)Nc2ccccc2C(=O)O)c2oc(-c3ccc4c(cnn4C)n3)cc(=O)c2c1 (single isomer, unassigned) [Example 53, 2-[1-[6-Methyl-2-(1-methylpyrazolo[4,3-b]pyridin-5-yl)-4-oxo-chromen-8-yl]ethylamino]benzoic acid] | 5.30 to 6.00 | > 6.30 |  | 
14 | Cc1cc(C(C)Nc2ccccc2C(=O)O)c2oc(-c3nccn4cccc34)cc(=O)c2c1 (single isomer, unassigned) [Example 105, 2-[1-(6-Methyl-4-oxo-2-pyrrolo[1,2-a]pyrazin-1-yl-chromen-8-yl)ethylamino]benzoic acid] | 5.00 to 5.30 | > 6.30 |  | 
15 | Cc1cc(C(C)Nc2ccccc2C(=O)O)c2oc(-c3ccc4c(n3)N(C)C(=O)C4)cc(=O)c2c1 (single isomer, unassigned) [Example 141, 2-[1-[6-Methyl-2-(1-methyl-2-oxo-3H-pyrrolo[2,3-b]pyridin-6-yl)-4-oxo-chromen-8-yl]ethylamino]benzoic acid] | 5.30 to 6.00 | > 6.30 |  | 
16 | Cc1cc(C(C)Nc2ccccc2C(=O)O)c2oc(-c3cnc4nn(C)cc4c3)cc(=O)c2c1 (single isomer, unassigned) [Example 42, 2-[1-[6-Methyl-2-(2-methylpyrazolo[3,4-b]pyridin-5-yl)-4-oxo-chromen-8-yl]ethylamino]benzoic acid] | 5.30 to 6.00 | > 6.30 |  | 
17 | Cc1cc(C(C)Nc2ccc(Cl)nc2C(=O)O)c2oc(-c3ccc4nn(C)cc4c3)cc(=O)c2c1 (single isomer, unassigned) [Example 206, 6-Chloro-3-[1-[6-methyl-2-(2-methylindazol-5-yl)-4-oxo-chromen-8-yl]ethylamino]pyridine-2-carboxylic acid] | > 6.30 | > 6.30 |  | 
18 | Cc1cc(C(C)Nc2ccccc2C(=O)O)c2oc(-c3ccc4c(c3)CC(=O)N4C)cc(=O)c2c1 (single isomer, unassigned) [Example 62, 2-[1-[6-Methyl-2-(1-methyl-2-oxo-indolin-5-yl)-4-oxo-chromen-8-yl]ethylamino]benzoic acid] | 5.30 to 6.00 | > 6.30 |  | 
19 | Cc1cc(C(C)Nc2ccccc2C(=O)O)c2oc(-c3ccc4[nH]c(C(F)(F)F)cc4c3)cc(=O)c2c1 (centres unmarked) [Example 11, 2-[1-[6-Methyl-4-oxo-2-[2-(trifluoromethyl)-1H-indol-5-yl]chromen-8-yl]ethylamino]benzoic acid] |  |  | 6.00 to 6.30 | 6.00 to 6.30
20 | Cc1cc(C(C)Nc2ccccc2C(=O)O)c2oc(-c3cc4ccncc4o3)cc(=O)c2c1 (centres unmarked) [Example 152, 2-[1-(2-Furo[2,3-c]pyridin-2-yl-6-methyl-4-oxo-chromen-8-yl)ethylamino]benzoic acid] | 5.30 to 6.00 | > 6.30 |  | 
21 | Cc1cc(C(C)Nc2ccccc2C(=O)O)c2oc(-c3ncc4cc(C)[nH]c4n3)cc(=O)c2c1 (single isomer, unassigned) [Example 72, 2-[1-[6-Methyl-2-(6-methyl-7H-pyrrolo[2,3-d]pyrimidin-2-yl)-4-oxo-chromen-8-yl]ethylamino]benzoic acid] | 6.00 to 6.30 | > 6.30 |  | 
22 | Cc1cc(C(C)Nc2ccc(Cl)nc2C(=O)O)c2oc(-c3ccc4nc(C)cn4c3)cc(=O)c2c1 (single isomer, unassigned) [Example 179, 6-Chloro-3-[1-[6-methyl-2-(2-methylimidazo[1,2-a]pyridin-6-yl)-4-oxo-chromen-8-yl]ethylamino]pyridine-2-carboxylic acid] | 5.00 to 5.30 | 6.00 to 6.30 |  | 
